Experimental data: the NIST ThermoML archive (doi:10.1021/je1000796)
Numbers after ± are expanded uncertainties.

How the values were obtained:
[1] = 101 kPa, Liquid; for viscosity: Capillary tube (Ostwald / Ubbelohde) method
[2] = mn = molality of the nth substance listed, in mol/kg; conditions: 101 kPa, Liquid, m2 = 0; for viscosity: Capillary tube (Ostwald / Ubbelohde) method

Structure (SMILES)	mass density ([1]; 278.15 K) [kg/m3]	viscosity ([1]; 278.15 K) [mPa·s]	mass density ([1]; 283.15 K) [kg/m3]	viscosity ([1]; 283.15 K) [mPa·s]	mass density ([1]; 288.15 K) [kg/m3]	viscosity ([1]; 288.15 K) [mPa·s]	mass density ([1]; 293.15 K) [kg/m3]	viscosity ([1]; 293.15 K) [mPa·s]	mass density ([1]; 298.15 K) [kg/m3]	viscosity ([1]; 298.15 K) [mPa·s]	mass density ([1]; 303.15 K) [kg/m3]	viscosity ([1]; 303.15 K) [mPa·s]	mass density ([1]; 308.15 K) [kg/m3]	viscosity ([1]; 308.15 K) [mPa·s]	mass density ([1]; 313.15 K) [kg/m3]	viscosity ([1]; 313.15 K) [mPa·s]	viscosity ([2]; 278.15 K) [mPa·s]	mass density ([2]; 278.15 K) [kg/m3]	viscosity ([2]; 283.15 K) [mPa·s]	mass density ([2]; 283.15 K) [kg/m3]	further results
CO [methanol]	803 ± 0.9	0.7418 ± 0.0065	798.9 ± 0.8	0.689 ± 0.0061	795.2 ± 0.8	0.641 ± 0.0057	792.1 ± 0.9	0.599 ± 0.0054	787.9 ± 0.8	0.5585 ± 0.005	783.7 ± 0.8	0.5199 ± 0.0047	779.5 ± 0.9	0.4857 ± 0.0044	775.2 ± 0.9	0.4559 ± 0.0042	–	–	–	–	–
CCO [ethanol]	800.5 ± 1	1.629 ± 0.014	797.8 ± 1	1.474 ± 0.013	793.9 ± 0.8	1.333 ± 0.011	790 ± 0.9	1.21 ± 0.01	785.7 ± 0.9	1.099 ± 0.0094	780.9 ± 0.9	0.9971 ± 0.0086	778 ± 1.2	0.9083 ± 0.0079	773.3 ± 1	0.828 ± 0.0072	–	–	–	–	–
CO [methanol] + COC(=O)[C@H](c1ccccc1Cl)N1CCc2sccc2C1.O=S(=O)(O)O	–	–	–	–	–	–	–	–	–	–	–	–	–	–	–	–	0.7418 ± 0.0065	803 ± 0.9	0.689 ± 0.0061	798.9 ± 0.8	viscosity ([2]; 288.15 K): 0.641 ± 0.0057 mPa·s; mass density ([2]; 288.15 K): 795.2 ± 0.8 kg/m3; viscosity ([2]; 293.15 K): 0.599 ± 0.0054 mPa·s; mass density ([2]; 293.15 K): 792.1 ± 0.9 kg/m3; viscosity ([2]; 298.15 K): 0.5585 ± 0.005 mPa·s; mass density ([2]; 298.15 K): 787.9 ± 0.8 kg/m3; viscosity ([2]; 303.15 K): 0.5199 ± 0.0047 mPa·s; mass density ([2]; 303.15 K): 783.7 ± 0.8 kg/m3; viscosity ([2]; 308.15 K): 0.4857 ± 0.0044 mPa·s; mass density ([2]; 308.15 K): 779.5 ± 0.9 kg/m3; viscosity ([2]; 313.15 K): 0.4559 ± 0.0042 mPa·s; mass density ([2]; 313.15 K): 775.2 ± 0.9 kg/m3
CCO [ethanol] + COC(=O)[C@H](c1ccccc1Cl)N1CCc2sccc2C1.O=S(=O)(O)O	–	–	–	–	–	–	–	–	–	–	–	–	–	–	–	–	1.629 ± 0.014	800.5 ± 1	1.474 ± 0.013	797.8 ± 1	viscosity ([2]; 288.15 K): 1.333 ± 0.011 mPa·s; mass density ([2]; 288.15 K): 793.9 ± 0.8 kg/m3; viscosity ([2]; 293.15 K): 1.21 ± 0.01 mPa·s; mass density ([2]; 293.15 K): 790 ± 0.9 kg/m3; viscosity ([2]; 298.15 K): 1.099 ± 0.0094 mPa·s; mass density ([2]; 298.15 K): 785.7 ± 0.9 kg/m3; viscosity ([2]; 303.15 K): 0.9971 ± 0.0086 mPa·s; mass density ([2]; 303.15 K): 780.9 ± 0.9 kg/m3; viscosity ([2]; 308.15 K): 0.9083 ± 0.0079 mPa·s; mass density ([2]; 308.15 K): 778 ± 1.2 kg/m3; viscosity ([2]; 313.15 K): 0.828 ± 0.0072 mPa·s; mass density ([2]; 313.15 K): 773.3 ± 1 kg/m3
